From PMC6269433, “Biocatalytic production of adiponitrile and related aliphatic linear α,ω-dinitriles” (Nature Communications, 2018)

Legend:
Type in all cases: cell-based
[1] = biological target: T1, OxdA (Pseudomonas chlororaphis, UniProt Q7WSJ4); assay: whole-cell dehydration to adiponitrile, GC; settings: E. coli resting cells, 50 mM potassium phosphate pH 7.0, 30 °C, argon, with or without 20% DMSO; activity only per bio wet weight
T1 construct: recombinant in E. coli, resting whole cells; plasmid details only in supplement; ferrous heme enzyme
T1 sequence (Q7WSJ4 1-352): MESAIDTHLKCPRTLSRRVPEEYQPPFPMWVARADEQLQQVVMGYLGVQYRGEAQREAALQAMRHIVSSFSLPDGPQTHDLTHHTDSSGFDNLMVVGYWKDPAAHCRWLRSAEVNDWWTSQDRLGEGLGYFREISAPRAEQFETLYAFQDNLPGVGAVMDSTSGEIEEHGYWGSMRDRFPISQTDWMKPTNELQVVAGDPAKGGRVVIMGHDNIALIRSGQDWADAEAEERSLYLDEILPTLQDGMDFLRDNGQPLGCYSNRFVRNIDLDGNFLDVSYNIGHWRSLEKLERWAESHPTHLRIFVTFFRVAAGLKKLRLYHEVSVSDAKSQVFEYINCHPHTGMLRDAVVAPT

[2] = biological target: T2, OxdB (Bacillus sp. OxB-1, UniProt P82604); assay: whole-cell dehydration to adiponitrile, GC; settings: E. coli resting cells, 50 mM potassium phosphate pH 7.0, 30 °C, argon, with or without 20% DMSO; activity only per bio wet weight
T2 construct: gene oxd; recombinant in E. coli, resting whole cells; plasmid details only in supplement; ferrous heme enzyme
T2 sequence (P82604 2-351): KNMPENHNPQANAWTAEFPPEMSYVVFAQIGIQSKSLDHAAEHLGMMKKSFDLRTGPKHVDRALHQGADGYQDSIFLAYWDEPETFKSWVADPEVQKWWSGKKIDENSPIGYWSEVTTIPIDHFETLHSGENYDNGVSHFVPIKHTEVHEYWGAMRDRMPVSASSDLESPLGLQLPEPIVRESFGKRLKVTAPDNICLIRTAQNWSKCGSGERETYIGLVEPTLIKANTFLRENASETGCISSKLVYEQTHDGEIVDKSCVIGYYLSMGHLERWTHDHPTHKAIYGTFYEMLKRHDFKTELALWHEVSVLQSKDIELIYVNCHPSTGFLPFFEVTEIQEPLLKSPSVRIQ

[3] = biological target: T1, OxdA; assay: whole-cell dehydration to the dinitrile, analytical scale; settings: E. coli resting cells; substrate 3.0-75 mM range; activity only per bio wet weight
[4] = biological target: T2, OxdB; assay: as above; settings: E. coli resting cells; substrate 3.0-75 mM range; activity only per bio wet weight

Row | SMILES | whole-cell dehydration to adiponitrile, GC [1] | whole-cell dehydration to adiponitrile, GC [2] | whole-cell dehydration to the dinitrile, analytical scale [3] | whole-cell dehydration to the dinitrile, analytical scale [4]
1 | ON=CCCCCC=NO [1d, adipaldehyde dioxime] | the C6-C10-dialdoximes (1d-h) were converted by both Oxds completely with excellent efficiency | the C6-C10-dialdoximes (1d-h) were converted by both Oxds completely with excellent efficiency | – | –
2 | ON=CCCCCCCC=NO [1f, C8-dialdoxime] | – | – | the C6-C10-dialdoximes (1d-h) were converted by both Oxds completely with excellent efficiency | the C6-C10-dialdoximes (1d-h) were converted by both Oxds completely with excellent efficiency
